Laboratory results published in patent US5624924A, “Quinobenzothiazine antineoplastic agents” (priority 1994, dated 1997).
Several values for one entry are separate records, joined by “and”; a condition that tells them apart may be missing. Equal values may be shown once. Where a name gives a salt, the structure may show the parent alone.

Tests used:
Aqueous solubility = assay type: physicochemical; conditions: water
Description: The effect of peptidyl substitution on the solubility of the compounds of the invention was examined by dissolving samples thereof in water.

P388 ascitic leukemia = test: In vivo activity against systemic tumor P388; parameters: species or system mouse; conditions: 20 mg/kg IP once daily, five days; positive control
Protocol: Prior to testing, P388 was propagated intraperitoneally in female DBA2 mice. The ascitic tumors were intraperitoneally injected in female B6 D2 F1 mice at a concentration of 10^6 cells per mouse. The mice were treated with antiumor agents administered once daily for five consecutive days, with the antineoplastic 5-fluorouracil used as a positive control.
All drugs were administered intraperitoneally in 5% aqueous dextrose or other suitable diluent. Drug efficacy was evaluated based on prolongation of mean survival time (MST). Improvement of MST was calculated as % MST(T/C), the percent ratio of mean survival times of test (T) versus control (C) mice. Compounds having % MST(T/C) values greater than 125 are considered to have significant activity. The antitumor activity of the two compounds in the P388 systemic leukemia model is illustrated in Table 3 below.

[1] = system: C-26 colon adenocarcinoma; test: In vivo activity against C-26 implanted subcutaneously (Example 44); parameters: species or system mouse
Protocol: (§1) The title compound of Example 37 above was tested against solid tumors in mice, using 1,3-bis(2-chloroethyl)-1-nitrosourea (BCNU) as a positive control. The tumor lines were M5076, an ovarian sarcoma implanted intraperitoneally (IP), and C-26, a colon adenocarcinoma, implanted intraperitoneally (IP) and subcutaneously (SC) in separate trials.
(§2) All drugs were administered in 5% aqueous dextrose or other suitable diluent. Drug efficacy was determined by prolonged survival times of the test animals or reduced tumor mass as compared to negative controls. Test groups consisted of 10 mice. Control groups consisted of 20 mice. Animals were of one sex and of similar weight. Prior to testing, the tumor cell lines were propagated in BALB/cj mice. Tumor implants were aliquots of a donor pool brei,
For the C-26 SC trial, the tumor was implanted SC into mice on day 0. The test compound was administered four times a day IP from day 1 to day 9 for a total of nine days. BCNU was administered four times a day on days 1, 5, and 9. The mean tumor masses were determined on day 11 and day 21, and the experiment terminated on day 60. The mean tumor mass (MTM) inhibition value of % MTM(T/C) was calculated, which value represents the ratio of treated to control group MTM's expressed as a percentage.

[2] = system: C-26 colon adenocarcinoma; test: In vivo activity against C-26 implanted intraperitoneally (Example 44); parameters: species or system mouse
Protocol: as §1, §2
(§3) In the IP trials, the mean survival time (MST) of the groups of mice was determined, not counting animals surviving at the conclusion of the trial, and the mean lifespan comparison value of % MST(T/C) calculated, which value represents the ratio of treated to control group MST's expressed as a percentage.
For C-26 colon adenocarcinoma, the tumor was implanted into CD2 F1 mice, IP and SC in separate trials. For the C-26 IP trial, the tumor was implanted IP on day 0. The test compound were administered four times a day IP from day 1 to day 9 for a total of nine days. BCNU was administered four times a day on days 1, 5 and 9.

M5076 ovarian sarcoma = test: In vivo activity against M5076 implanted intraperitoneally (Example 44); parameters: species or system mouse
Protocol: as §1, §2, §3
For M5076 ovarian sarcoma, the tumor was implanted IP into BDF1 mice on day 0. The test compound was administered four times a day IP from day 1 to day 9 for a total of nine days.

B16F10 mouse melanoma = test: In vitro cytotoxicity (MTT), B16F10; assay type: cell-based; conditions: B16-F10, 72 h, read-out: In Vitro Cytotoxicity (IC50)
Protocol: (§4) Metabolic activity was measured by the cells' ability to reduce the tetrazolium dye, 3-(4,5-dimethylthiazol-2-yl)-2,5-diphenyltetrazolium bromide (MTT), to a quantifiable colored formasan derivative. Surviving cells reduce the MTT dye. The inhibitory concentrations of killing 50% of the cells (IC50 s) were calculated. Testing was in accord with the following protocol:
(§5) Test compounds and a reference antineoplastic agent, ADRIAMYCIN (doxorubicin hydrochloride), were dissolved in dimethyl sulfoxide (DMSO) and diluted, first with Earle's Balanced Salt Solution, followed by culture medium, to twice the highest concentration of the compound to be tested. From this concentrated stock, two-fold serial dilutions were prepared in 96-well microtiter trays, each well containing twice the desired final concentration of the compound. Each concentration was tested in triplicate and compared to triplicate drug-free controls.
(§6) The cells were grown in the same medium used for diluting the compounds. Adherent cells were harvested by trypsinization according to the following procedure:
(§7) After harvesting by trypsinization, viable cell counts were determined and cell density was adjusted to 25,000 cells/mL. Inoculum (0.1 mL) was then added to each well for a final concentration of 2,500 cells per well. Addition of the inoculum was used to dilute the test compounds to the desired concentration.
(§8) Microtiter trays were incubated for three days at 36° C. in a humidified atmosphere containing 5% carbon dioxide.
(§9) After three days, 20 microliters of 5 mg/mL MTT in phosphate-buffered solution were added to each well of the microtiter trays. The microtiter trays were then returned to the incubator for two to four hours to allow the surviving cells to reduce the dye. After this incubation, both the medium and the unreduced dye were removed by aspiration. DMSO was added to each well to dissolve the water-insoluble, colored end product of the dye reduction for spectrophotometric measurement at 570 nm.
(§10) Compounds from Examples 4, 6, 8, 9 and 10 were additionally tested against human and murine tumor cell lines A549, HT-29, P388-D1, P388, P388-ADR(0.0), P388-ADR(0.1) and B16F109. (P388 is a mouse leukemia cell line similar to P388-D1, but animal-passaged; P388-ADR (0.0) is an ADRIAMYCIN-resistant variant of P388, the inoculum of which is grown in drug-free medium; P388-ADR (0.1) is an ADRIAMYCIN-resistant variant of P388, the inoculum of which is grown in medium with 0.1 mcg.ml ADRIAMYCIN; and B16F10 is a mouse melanoma.) The results are presented in Table 2; as shown in the table, the compounds of the present invention are effective cytotoxic agents even against the ADRIAMYCIN-resistant cell line P388-ADR.

[3] = system: P388-ADR(0.0), ADRIAMYCIN-resistant variant of P388; test: In vitro cytotoxicity (MTT), P388-ADR(0.0); assay type: cell-based; conditions: Mus musculus, 72 h, inoculum grown in drug-free medium, Table 2
Protocol: as §4, §5, §6, §7, §8, §9, §10

[4] = system: A549 human lung cancer cell line; test: In vitro cytotoxicity (MTT), A549; assay type: cell-based; conditions: A549, 72 h, read-out: In Vitro Cytotoxicity (IC50), A549, Table 2, ADR: average of two tests
Protocol: as §4, §5, §6, §7, §8, §9
(§11) The results obtained which clearly show the cytotoxicity of the compounds of Examples 5, 6, 7 and 8 against […] tumor cell lines A549, HCT-8, HT-29 and P388-D1, are illustrated in Table 1. (A549 is a human lung cancer cell line; HCT-8 is a human colon cancer cell line; HT-29 is a human colon cancer cell line; and P388-D1 is a mouse leukemia cell line.)

[5] = system: HT-29 human colon cancer cell line; test: In vitro cytotoxicity (MTT), HT-29; assay type: cell-based; conditions: HT-29, 72 h, read-out: In Vitro Cytotoxicity (IC50), HT-29, Table 2, ADR: average of two tests
Protocol: as §4, §5, §6, §7, §8, §9, §11

[6] = system: P388 mouse leukemia cell line; test: In vitro cytotoxicity (MTT), P388; assay type: cell-based; conditions: P388, 72 h, read-out: In Vitro Cytotoxicity (IC50)
Protocol: as §4, §5, §6, §7, §8, §9, §10

[7] = day 11, 10 mg/kg, compound 37 days 1-9, BCNU days 1, 5, 9
[8] = day 21, 10 mg/kg, compound 37 days 1-9, BCNU days 1, 5, 9
[9] = 10 mg/kg, compound 37 days 1-9, BCNU days 1, 5, 9

CCC[C@H](NC(=O)[C@@H](N)CCC)C(=O)NC1CCN(c2c(F)cc3c(=O)c(C(=O)O)cn4c3c2Oc2ccccc2-4)C1 (stereo partly drawn) [Example 38, 1-(3-Norvalylnorvalylaminopyrrolidin-1-yl)-2-fluoro-4-oxo-4H-quino[2,3,4-i,j][1,4]benzoxazine-5-carboxylic acid hydrochloride]
solubility (Aqueous solubility): 11.1 mg/mL

O=c1[nH]cc(F)c(=O)[nH]1 [5-Fluorouracil, 5-fluorouracil, reference compound]
% MST(T/C) (P388 ascitic leukemia): 160% and 186.67%

C[C@H](N)C(=O)N[C@@H](C)C(=O)NC1CCN(c2c(F)cc3c(=O)c(C(=O)O)cn4c3c2Oc2ccccc2-4)C1 (stereo partly drawn) [Example 37, 1-(3-Alanylalanylaminopyrrolidin-1-yl)-2-fluoro-4-oxo-4H-quino[2,3,4-i,j][1,4]benzoxazine-5-carboxylic acid hydrochloride]
% MTM(T/C) ([1]; day 11, 2.5 mg/kg): 97%
MTM ([1]; day 11, 2.5 mg/kg): 302 mg
% MTM(T/C) ([1]; day 11, 5 mg/kg): 66%
MTM ([1]; day 11, 5 mg/kg): 205 mg
% MTM(T/C) [1, 7]: 24%
MTM [1, 7]: 74 mg
% MTM(T/C) ([1]; day 11, 20 mg/kg): 0%
MTM ([1]; day 11, 20 mg/kg): 0 mg
% MTM(T/C) ([1]; day 21, 2.5 mg/kg): 79%
MTM ([1]; day 21, 2.5 mg/kg): 2617 mg
% MTM(T/C) ([1]; day 21, 5 mg/kg): 75%
MTM ([1]; day 21, 5 mg/kg): 2462 mg
% MTM(T/C) [1, 8]: 41%
MTM [1, 8]: 1336 mg
% MTM(T/C) ([1]; day 21, 20 mg/kg): 5%
MTM ([1]; day 21, 20 mg/kg): 169 mg
activity against tumor implanted subcutaneously ([1]; days 11 and 21, in words): significantly active
% MST(T/C) ([2]; 2.5 mg/kg IP days 1-9): 147%
MST ([2]; 2.5 mg/kg IP days 1-9): 30.3
% MST(T/C) ([2]; 5 mg/kg IP days 1-9): 174%
MST ([2]; 5 mg/kg IP days 1-9): 36.0
% MST(T/C) [2, 9]: 195%
MST [2, 9]: 40.2
test animals that survived the trial ([2]; 20 mg/kg (footnote a)): Three of ten test animals survived the trial
% MST(T/C) ([2]; 20 mg/kg IP days 1-9): 197%
MST ([2]; 20 mg/kg IP days 1-9): 40.7
improvement in survival time ([2]; C-26 IP, in words): significant improvement in survival time
test animals that survived the trial (M5076 ovarian sarcoma; 12.5 mg/kg (footnote b)): One of ten test animals survived the trial
% MST(T/C) (M5076 ovarian sarcoma; 12.5 mg/kg IP days 1-9): 215%
MST (M5076 ovarian sarcoma; 12.5 mg/kg IP days 1-9): 44.6
Toxicity due to the test compound (M5076 ovarian sarcoma; 25 mg/kg (footnote a)): Toxicity due to the test compound noted
% MST(T/C) (M5076 ovarian sarcoma; 25 mg/kg IP days 1-9): 45%
MST (M5076 ovarian sarcoma; 25 mg/kg IP days 1-9): 9.3
Toxicity due to the test compound (M5076 ovarian sarcoma; 50 mg/kg (footnote a)): Toxicity due to the test compound noted
% MST(T/C) (M5076 ovarian sarcoma; 50 mg/kg IP days 1-9): 21%
MST (M5076 ovarian sarcoma; 50 mg/kg IP days 1-9): 4.4
Toxicity due to the test compound (M5076 ovarian sarcoma; 100 mg/kg (footnote a)): Toxicity due to the test compound noted
% MST(T/C) (M5076 ovarian sarcoma; 100 mg/kg IP days 1-9): 15%
MST (M5076 ovarian sarcoma; 100 mg/kg IP days 1-9): 3.2
improvement in survival time (M5076 ovarian sarcoma; M5076 IP, in words): significant improvement in survival time
solubility (Aqueous solubility): 28.2 mg/mL

Cc1ccc2c(c1)Oc1c(N3CC[C@H](N)C3)c(F)cc3c(=O)c(C(=O)O)cn-2c13 [Example 18, 1-((3S)-3-aminopyrrolidin-1-yl)-2-fluoro-9-methyl-4-oxo-4H-quino[2,3,4-i,j][1,4]benzoxazine-5-carboxylic acid hydrochloride]
IC50 (B16F10 mouse melanoma): 0.024 µg/mL
IC50 [3]: 0.13 µg/mL
IC50 [4]: 0.11 µg/mL
IC50 [5]: 0.04 µg/mL
IC50 [6]: 0.047 µg/mL

N[C@H]1CCN(c2c(F)cc3c(=O)c(C(=O)O)cn4c3c2Oc2ccccc2-4)C1 [Example 16, 1((3S)-3-aminopyrrolidin-1-yl)-2-fluoro-4-oxo-4H-quino[2,3,4-i,j][1,4]benzoxazine-5-carboxylic acid hydrochloride]
IC50 (B16F10 mouse melanoma): 0.018 µg/mL
IC50 [3]: 0.12 µg/mL
IC50 [4]: 0.23 µg/mL
IC50 [5]: 0.055 µg/mL
IC50 [6]: 0.017 µg/mL

CCC[C@H](N)C(=O)N[C@@H](C)C(=O)NC1CCN(c2c(F)cc3c(=O)c(C(=O)O)cn4c3c2Oc2ccccc2-4)C1 (stereo partly drawn) [Example 40, 1-(3-Norvalylalanylaminopyrrolidin-1-yl)-2-fluoro-4-oxo-4H-quino[2,3,4-i,j][1,4]benzoxazine-5-carboxylic acid hydrochloride]
solubility (Aqueous solubility): > 47.8 mg/mL
